Reference: patent US11541055B2, “Inhibitors of human immunodeficiency virus replication” (ViiV Healthcare UK (No. 5) LIMITED, priority 2018, dated 2023)

Experiments:
[1] = Compound cytotoxicity, XTT-based colorimetric assay; format: cell-based; details: human; uninfected MT2 cells, day 4, XTT
In short: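 Run under the antiviral-assay protocol but without virus. Viability was read on day 4 and CC50 values were derived from the readout.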

[2] = system: recombinant NL4-3 virus (Renilla luciferase) in MT-2 cells; test: HIV cell culture assay (antiviral activity, luciferase readout); format: cell-based; details: Renilla, NL43
In short: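 Antiviral EC50 was derived via the median effect equation from luciferase signal. The signal came from MT-2 cultures infected for 4–5 days with a nef-deleted, Renilla luciferase-expressing NL4-3 reporter virus (made in 293T cells) in the presence of compound dilutions.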

**Q.** Which results are given for `Cc1ncc(-c2ccc3c(=O)n(-c4ccc(Cl)c5c(NS(=O)(=O)C6CC6)nn(CC(F)F)c45)c([C@H](Cc4cc(F)cc(F)c4)NC(=O)Cn4nc(C(F)F)c5c4C(F)(F)[C@@H]4C[C@H]54)nc3c2)s1` (atropisomer, axis not shown) [Example 97, N-[(1S)-1-{3-[4-chloro-3-cyclopropanesulfonamido-1-(2,2-difluoroethyl)-1H-indazol-7-yl]-7-(2-methyl-1,3-thiazol-5-yl)-4-oxo-3,4-dihydroquinazolin-2-yl}-2-(3,5-difluorophenyl)ethyl]-2-[(2S,4R)-9-(difluoromethyl)-5,5-difluoro-7,8-diazatricyclo[4.3.0.0^2,^4]nona-1(6),8-dien-7-yl]acetamide]?
**A.** CC50 at 4 days [1]: > 500 nM; EC50 [2]: 0.22 nM

**Q.** What does the source list for `COc1nccnc1-c1ccc2c(=O)n(-c3ccc(Cl)c4c(NS(C)(=O)=O)nn(C)c34)c([C@H](Cc3cc(F)cc(F)c3)NC(=O)Cn3nc(C(F)F)c4c3C(F)(F)[C@@H]3C[C@H]43)nc2c1` (atropisomer, axis not shown; (P)) [Example 15, N—((S)-1-((3P)-3-(4-chloro-1-methyl-3-(methylsulfonamido)-1H-indazol-7-yl)-7-(3-methoxypyrazin-2-yl)-4-oxo-3,4-dihydroquinazolin-2-yl)-2-(3,5-difluorophenyl)ethyl)-2-((3bS,4aR)-3-(difluoromethyl)-5,5-difluoro-3b,4,4a,5-tetrahydro-1H-cyclopropa[3,4]cyclopenta[1,2-c]pyrazol-1-yl)acetamide]?
**A.** CC50 at 4 days [1]: > 500 nM; EC50 [2]: 0.15 nM

**Q.** Which results are given for `CCc1cc(-c2ccc3c(=O)n(-c4ccc(Cl)c5c(NS(C)(=O)=O)nn(C)c45)c([C@H](Cc4cc(F)cc(F)c4)NC(=O)Cn4nc(C(F)F)c5c4C(F)(F)[C@@H]4C[C@H]54)nc3c2)nc(C)n1` (atropisomer, axis not shown; (P)) [Example 62, N—((S)-1-((3P)-3-(4-chloro-1-methyl-3-(methylsulfonamido)-1H-indazol-7-yl)-7-(6-ethyl-2-methylpyrimidin-4-yl)-4-oxo-3,4-dihydroquinazolin-2-yl)-2-(3,5-difluorophenyl)ethyl)-2-((3bS,4aR)-3-(difluoromethyl)-5,5-difluoro-3b,4,4a,5-tetrahydro-1H-cyclopropa[3,4]cyclopenta[1,2-c]pyrazol-1-yl)acetamide]?
**A.** CC50 at 4 days [1]: > 500 nM; EC50 [2]: 0.11 nM

**Q.** With `CCc1ccnc(-c2ccc3c(=O)n(-c4ccc(Cl)c5c(NS(C)(=O)=O)nn(C)c45)c([C@H](Cc4cc(F)cc(F)c4)NC(=O)Cn4nc(C(F)F)c5c4C(F)(F)[C@@H]4C[C@H]54)nc3c2)n1` (atropisomer, axis not shown; (P)) [Example 43, N—((S)-1-((3P)-3-(4-chloro-1-methyl-3-(methylsulfonamido)-1H-indazol-7-yl)-7-(4-ethylpyrimidin-2-yl)-4-oxo-3,4-dihydroquinazolin-2-yl)-2-(3,5-difluorophenyl)ethyl)-2-((3bS,4aR)-3-(difluoromethyl)-5,5-difluoro-3b,4,4a,5-tetrahydro-1H-cyclopropa[3,4]cyclopenta[1,2-c]pyrazol-1-yl)acetamide] as the compound, how does the CC50 at 4 days [1] read?
**A.** > 500 nM

**Q.** What about the EC50 [2] of the same compound?
**A.** 0.058 nM

**Q.** With `Cc1ncnc(C)c1-c1ccc2c(=O)n(-c3ccc(Cl)c4c(NS(C)(=O)=O)nn(C)c34)c([C@H](Cc3cc(F)cc(F)c3)NC(=O)Cn3nc(C(F)F)c4c3C(F)(F)[C@@H]3C[C@H]43)nc2c1` (atropisomer, axis not shown; (P)) [Example 40, N—((S)-1-((3P)-3-(4-chloro-1-methyl-3-(methylsulfonamido)-1H-indazol-7-yl)-7-(4,6-dimethylpyrimidin-5-yl)-4-oxo-3,4-dihydroquinazolin-2-yl)-2-(3,5-difluorophenyl)ethyl)-2-((3bS,4aR)-3-(difluoromethyl)-5,5-difluoro-3b,4,4a,5-tetrahydro-1H-cyclopropa[3,4]cyclopenta[1,2-c]pyrazol-1-yl)acetamide] as the compound, how does the CC50 at 4 days [1] read?
**A.** > 500 nM

**Q.** And the EC50 [2]?
**A.** 0.053 nM

**Q.** Which CC50 at 4 days [1] does the source give for `Cc1cc(C)nc(-c2ccc3c(=O)n(-c4ccc(Cl)c5c(NS(C)(=O)=O)nn(C)c45)c([C@H](Cc4cc(F)cc(F)c4)NC(=O)Cn4nc(C(F)F)c5c4C(F)(F)[C@@H]4C[C@H]54)nc3c2)c1` (atropisomer, axis not shown; (P)) [Example 1, N—((S)-1-((3P)-3-(4-chloro-1-methyl-3-(methylsulfonamido)-1H-indazol-7-yl)-7-(4,6-dimethylpyridin-2-yl)-4-oxo-3,4-dihydroquinazolin-2-yl)-2-(3,5-difluorophenyl)ethyl)-2-((3bS,4aR)-3-(difluoromethyl)-5,5-difluoro-3b,4,4a,5-tetrahydro-1H-cyclopropa[3,4]cyclopenta[1,2-c]pyrazol-1-yl)acetamide] here?
**A.** > 500 nM

**Q.** And the EC50 [2]?
**A.** 0.15 nM

**Q.** Which CC50 at 4 days [1] does the source give for `CC(C)(C)S(=O)(=O)c1ccccc1-c1ccc2c(=O)n(-c3ccc(Cl)c4c(NS(=O)(=O)C5CC5)nn(CC(F)F)c34)c([C@H](Cc3cc(F)cc(F)c3)NC(=O)Cn3nc(C(F)F)c4c3C(F)(F)[C@@H]3C[C@H]43)nc2c1` (atropisomer, axis not shown) [Example 143] here?
**A.** > 500 nM

**Q.** What about the EC50 [2] of the same compound?
**A.** 0.28 nM

**Q.** With `COc1ccc(-c2ccc3c(=O)n(-c4ccc(Cl)c5c(NS(=O)(=O)C6CC6)nn(CC(F)F)c45)c([C@H](Cc4cc(F)cc(F)c4)NC(=O)Cn4nc(C(F)F)c5c4C(F)(F)[C@@H]4C[C@H]54)nc3c2)nn1` (atropisomer, axis not shown; (P)) [Example 90, N—((S)-1-((3P)-3-(4-chloro-3-(cyclopropanesulfonamido)-1-(2,2-difluoroethyl)-1H-indazol-7-yl)-7-(6-methoxypyridazin-3-yl)-4-oxo-3,4-dihydroquinazolin-2-yl)-2-(3,5-difluorophenyl)ethyl)-2-((3bS,4aR)-3-(difluoromethyl)-5,5-difluoro-3b,4,4a,5-tetrahydro-1H-cyclopropa[3,4]cyclopenta[1,2-c]pyrazol-1-yl)acetamide] as the compound, how does the CC50 at 4 days [1] read?
**A.** > 500 nM

**Q.** What about the EC50 [2] of the same compound?
**A.** 0.085 nM

**Q.** For `Cc1ccc(F)c(-c2ccc3c(=O)n(-c4ccc(Cl)c5c(NS(C)(=O)=O)nn(C)c45)c([C@H](Cc4cc(F)cc(F)c4)NC(=O)Cn4nc(C(F)F)c5c4C(F)(F)[C@@H]4C[C@H]54)nc3c2)n1` (atropisomer, axis not shown; (P)) [Example 22, N—((S)-1-((3P)-3-(4-chloro-1-methyl-3-(methylsulfonamido)-1H-indazol-7-yl)-7-(3-fluoro-6-methylpyridin-2-yl)-4-oxo-3,4-dihydroquinazolin-2-yl)-2-(3,5-difluorophenyl)ethyl)-2-((3bS,4aR)-3-(difluoromethyl)-5,5-difluoro-3b,4,4a,5-tetrahydro-1H-cyclopropa[3,4]cyclopenta[1,2-c]pyrazol-1-yl)acetamide], which CC50 at 4 days [1] is on record?
**A.** > 500 nM

**Q.** What about the EC50 [2] of the same compound?
**A.** 0.11 nM

**Q.** Which results are given for `Cc1cc(-c2ccc3c(=O)n(-c4ccc(Cl)c5c(NS(C)(=O)=O)nn(CC(F)(F)F)c45)c([C@H](Cc4cc(F)cc(F)c4)NC(=O)Cn4nc(C(F)F)c5c4C(F)(F)[C@@H]4C[C@H]54)nc3c2)nc(C)n1` (atropisomer, axis not shown) [Example 103, N-[(1S)-1-{3-[4-chloro-3-methanesulfonamido-1-(2,2,2-trifluoroethyl)-1H-indazol-7-yl]-7-(2,6-dimethylpyrimidin-4-yl)-4-oxo-3,4-dihydroquinazolin-2-yl}-2-(3,5-difluorophenyl)ethyl]-2-[(2S,4R)-9-(difluoromethyl)-5,5-difluoro-7,8-diazatricyclo[4.3.0.0^2,^4]nona-1(6),8-dien-7-yl]acetamide]?
**A.** CC50 at 4 days [1]: > 500 nM; EC50 [2]: 0.059 nM

**Q.** With `CCc1cc(C)nc(-c2ccc3c(=O)n(-c4ccc(Cl)c5c(NS(C)(=O)=O)nn(CC(F)F)c45)c([C@H](Cc4cc(F)cc(F)c4)NC(=O)Cn4nc(C(F)F)c5c4C(F)(F)[C@@H]4C[C@H]54)nc3c2)n1` (atropisomer, axis not shown) [Example 126, N-[(1S)-1-{3-[4-chloro-1-(2,2-difluoroethyl)-3-methanesulfonamido-1H-indazol-7-yl]-7-(4-ethy1-6-methylpyrimidin-2-y1)-4-oxo-3,4-dihydroquinazolin-2-yl}-2-(3,5-difluorophenyl)ethyl]-2-[(2S,4R)-9-(difluoromethyl)-5,5-difluoro-7,8-diazatricyclo[4.3.0.0^2,^4]nona-1(6),8-dien-7-yl]acetamide] as the compound, how does the CC50 at 4 days [1] read?
**A.** > 500 nM

**Q.** What about the EC50 [2] of the same compound?
**A.** 0.12 nM

**Q.** Which results are given for `CCc1cc(CC)nc(-c2ccc3c(=O)n(-c4ccc(Cl)c5c(NS(C)(=O)=O)nn(C)c45)c([C@H](Cc4cc(F)cc(F)c4)NC(=O)Cn4nc(C(F)F)c5c4C(F)(F)[C@@H]4C[C@H]54)nc3c2)n1` (atropisomer, axis not shown; (P)) [Example 38, N—((S)-1-((3P)-3-(4-chloro-1-methyl-3-(methylsulfonamido)-1H-indazol-7-yl)-7-(4,6-diethylpyrimidin-2-yl)-4-oxo-3,4-dihydroquinazolin-2-yl)-2-(3,5-difluorophenyl)ethyl)-2-((3bS,4aR)-3-(difluoromethyl)-5,5-difluoro-3b,4,4a,5-tetrahydro-1H-cyclopropa[3,4]cyclopenta[1,2-c]pyrazol-1-yl)acetamide]?
**A.** CC50 at 4 days [1]: > 500 nM; EC50 [2]: 0.21 nM

**Q.** For `COc1cnc(-c2ccc3c(=O)n(-c4ccc(Cl)c5c(NS(C)(=O)=O)nn(CC(F)F)c45)c([C@H](Cc4cc(F)cc(F)c4)NC(=O)Cn4nc(C(F)F)c5c4C(F)(F)[C@@H]4C[C@H]54)nc3c2)nc1` (atropisomer, axis not shown) [Example 124, N-[(1S)-1-{3-[4-chloro-1-(2,2-difluoroethyl)-3-methanesulfonamido-1H-indazol-7-yl]-7-(5-methoxypyrimidin-2-yl)-4-oxo-3,4-dihydroquinazolin-2-yl}-2-(3,5-difluorophenyl)ethyl]-2-[(2S,4R)-9-(difluoromethyl)-5,5-difluoro-7,8-diazatricyclo[4.3.0.0^2,^4]nona-1(6),8-dien-7-yl]acetamide], which CC50 at 4 days [1] is on record?
**A.** > 500 nM

**Q.** And the EC50 [2]?
**A.** 0.092 nM
